The subject of the experiment is Staphylococcus aureus NCTC 8325-4. Briefly: Growth in LB broth flask culture with or without calcium chloride supplementation (visual growth, terminal plate count). To be noted: for critical limit in combination with 0.5% calcium chloride: procedures as for Table 8. Format: cell-based. Here is the method: The test organism is Staphylococcus aureus NCTC 8325-4 as described in the methods and flask cultures are 100 ml of Luria-Bertani broth (LB broth) in 250 ml Erlenmeyer flasks. LB broth is used instead of brain Heart Infusion because it is more defined and limited in mineral content.
A standard inoculum is grown as described in the methods section and adjusted to a viable cell count of […] by dilution in sterile saline, 0.1 ml of this is used to aseptically inoculate 100 ml volumes of test media—the inoculum being […] in the test flask.
To determine the Minimum Inhibitory effect of hexametaphosphate a series of flasks with 100 ml of LB broth were each supplemented with concentrations of hexametaphosphate ranging from 0% W/W to 1% W/W, each flask was inoculated with a standard inoculum to achieve 1×10^3 viable bacterial in the flask, the flasks were incubated at 37° C. in a rotary incubator for 24 hours and evaluated visually for growth at that time.
Following visual evaluation, 0.5% sterile calcium chloride was added to all flasks and incubation continued for a further 24 hours.

The results in this text go back to patent US12484600B2, “Expanded foam for delivery of functional ingredients” (Boehringer Ingelheim Vetmedica GmbH, priority 2020, dated 2025).

Regarding `[Ca+2].[Cl-].[Cl-]` [Calcium, calcium chloride], the “24 H CFU/ml” value (0.5% Calcium, LB broth) is recorded as >10^9 CFU/ml. The effect on growth result (0.5% calcium chloride supplement alone) is given as “no effect on growth”.

`O=P1([O-])OP(=O)([O-])OP(=O)([O-])OP(=O)([O-])OP(=O)([O-])OP(=O)([O-])O1.[Na+].[Na+].[Na+].[Na+].[Na+].[Na+]` [SHMP, sodium hexametaphosphate]: for the setting “0.27% SHMP, LB broth”, the “24 H CFU/ml” value is on record as ~2 × 10^2 CFU/ml. Besides, under “0.27% hexametaphosphate, 24 hours”, the residual viability is reported as 2×10^2. Further, where the note is “0.5% calcium chloride”, the “concentrations that remained inhibited post addition of calcium chloride” value is given as “at least 0.5%” and the “concentrations with full growth 24 hours post addition of calcium chloride” value is not above 0.27%. For the same compound, the “effect on microbial growth under conditions of excess calcium” value (0.5% calcium chloride, 0.27% SHMP, 0.375% functional emulsion) is given as “no inhibitory effect on microbial growth”. Moreover, the “concentrations at which growth was apparently inhibited” value (LB broth, 24 hours, no calcium supplementation) is given as not below 0.05%.

As to `O=c1ccn([C@@H]2O[C@H](COP(=O)(O)O)[C@@H](O)[C@H]2O)c(=O)[nH]1` [Uridine monophosphate], the “critical limit in combination with 0.5% calcium chloride” value is “inconclusive”.

Consider `O=P([O-])([O-])O.[Na+].[Na+]` [di-sodium orthophosphate], for which the “critical limit in combination with 0.5% calcium chloride” value was determined as 0.75%.

On to `O=P([O-])([O-])O[C@H]1[C@H](OP(=O)([O-])O)[C@H](OP(=O)([O-])[O-])[C@H](OP(=O)([O-])O)[C@@H](OP(=O)([O-])[O-])[C@@H]1OP(=O)([O-])O.[Na+].[Na+].[Na+].[Na+].[Na+].[Na+].[Na+].[Na+].[Na+]` [sodium phytate], for which the “critical limit in combination with 0.5% calcium chloride” value was found to be 0.2%.

Take `O=C([O-])CC(O)(CC(=O)[O-])C(=O)[O-].[Na+].[Na+].[Na+]` [tri-sodium citrate]: the “critical limit in combination with 0.5% calcium chloride” value worked out at 0.5%.
